In patent publication US12568972B2, “Pyridazinol compounds and derivatives, preparation methods, herbicidal compositions and applications thereof” (Qingdao Kingagroot Chemical Compound Co., Ltd., priority 2018, dated 2026):

tested on: Chenopodiaceae; assay: Post-emergence test, weed control effect; type: in vivo; details: Dose 3000 g/ha, after 3 weeks
Outline: (§1)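 Activity is expressed as a level from 0 (no effect) to 10 (plant dead), each step matching a further 10% fresh-weight inhibition, assessed 3 weeks post-treatment. Treatment: spray at 2-3 leaf stage of pot-grown plants, compound in acetone, Tween-80 and water with 80% vegetable oil methyl ester synergist at 1500 g/ha.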

Row | Compound | weed control effect (activity level), Chenopodiaceae | weed control effect, Chenopodiaceae (activity level)
1 | Oc1cc(C(F)(F)F)nnc1-c1cc(F)cnc1F [Compound 986] | 10 | 
2 | O=S(Oc1cc(C(F)(F)F)nnc1-c1ccc(F)cc1)C(F)(F)F (stereo not drawn) [Compound 1-166] |  | 10
3 | N#Cc1cccc(-c2nnc(C(F)(F)F)cc2O)c1 [Compound 742] | 10 | 
4 | Oc1cc(C(F)(F)F)nnc1-c1cnccc1F [Compound 964] | 10 | 
5 | CC/C(C)=N\Oc1cc(C(F)(F)F)nnc1-c1ccc(C)cc1 [Compound 1-170] |  | 10
6 | COP(=O)(OC)Oc1cc(C(F)(F)F)nnc1-c1ccc(F)c(Cl)c1 [Compound 1-167] |  | 10
7 | O=S(=O)(Oc1cc(C(F)(F)F)nnc1-c1ccc(F)c(Cl)c1)c1ccc(Oc2ccc(F)cc2)cc1 [Compound 1-142] |  | 10
8 | Oc1cc(C(F)(F)F)nnc1-c1cc(Cl)cnc1Cl [Compound 992] | 10 | 
9 | Oc1cc(C(F)(F)F)nnc1-c1ccc2cccnc2c1 [Compound 723] | 10 | 
10 | Cc1cc(-c2nnc(C(F)(F)F)cc2O)n(C(C)C)n1 [Compound 829] | 10 | 
11 | Cc1ccc(-c2nnc(C(F)(F)F)cc2OC(=S)OCCC(C)C)c([N+](=O)[O-])c1 [Compound 1-159] |  | 10

same assay, conditions: dose 1000 g/ha, after 3 weeks

Row | Compound | weed control effect (activity level), Chenopodiaceae
12 | Oc1cc(C(F)(F)F)nnc1-c1c(Cl)cccc1Cl [Compound 41] | 10
13 | Oc1cc(C(F)(F)F)nnc1-c1ccc(F)cc1Cl [Compound 44] | 10
14 | CCOc1ccc(F)c(-c2nnc(C(F)(F)F)cc2O)c1F [Compound 81] | 10
15 | Oc1cc(C(F)(F)F)nnc1-c1cccc(F)c1 [Compound 736] | 10
16 | Oc1cc(C(F)(F)F)nnc1-c1cc(F)ccc1F [Compound 34] | 10
17 | Oc1cc(C(F)(F)F)nnc1-c1ccccc1F [Compound 26] | 10

same assay, conditions: dose 2000 g/ha, after 3 weeks

Row | Compound | weed control effect (activity level), Chenopodiaceae
18 | Oc1cc(C(F)(F)F)nnc1-c1ccc2ccccc2c1 [Compound 370] | 10

tested on: Amaranthus retroflexus; assay: Post-emergence test, weed control effect; type: in vivo; details: Dose 3000 g/ha, after 3 weeks
Outline: as §1

Row | Compound | weed control effect (activity level), Amaranthus retroflexus | weed control effect, Amaranthus retroflexus (activity level)
19 | Oc1cc(C(F)(F)F)nnc1-c1cc(F)cnc1F [Compound 986] | 10 | 
20 | O=S(Oc1cc(C(F)(F)F)nnc1-c1ccc(F)cc1)C(F)(F)F (stereo not drawn) [Compound 1-166] |  | 10
21 | N#Cc1cccc(-c2nnc(C(F)(F)F)cc2O)c1 [Compound 742] | 10 | 
22 | Oc1cc(C(F)(F)F)nnc1-c1cnccc1F [Compound 964] | 10 | 
23 | CC/C(C)=N\Oc1cc(C(F)(F)F)nnc1-c1ccc(C)cc1 [Compound 1-170] |  | 10
24 | COP(=O)(OC)Oc1cc(C(F)(F)F)nnc1-c1ccc(F)c(Cl)c1 [Compound 1-167] |  | 10
25 | O=S(=O)(Oc1cc(C(F)(F)F)nnc1-c1ccc(F)c(Cl)c1)c1ccc(Oc2ccc(F)cc2)cc1 [Compound 1-142] |  | 10
26 | Oc1cc(C(F)(F)F)nnc1-c1cc(Cl)cnc1Cl [Compound 992] | 10 | 
27 | Oc1cc(C(F)(F)F)nnc1-c1ccc2cccnc2c1 [Compound 723] | 10 | 
28 | Cc1cc(-c2nnc(C(F)(F)F)cc2O)n(C(C)C)n1 [Compound 829] | 10 | 
29 | Cc1ccc(-c2nnc(C(F)(F)F)cc2OC(=S)OCCC(C)C)c([N+](=O)[O-])c1 [Compound 1-159] |  | 10

same assay, conditions: dose 1000 g/ha, after 3 weeks

Row | Compound | weed control effect (activity level), Amaranthus retroflexus
30 | Oc1cc(C(F)(F)F)nnc1-c1c(Cl)cccc1Cl [Compound 41] | 10
31 | Oc1cc(C(F)(F)F)nnc1-c1ccc(F)cc1Cl [Compound 44] | 10
32 | CCOc1ccc(F)c(-c2nnc(C(F)(F)F)cc2O)c1F [Compound 81] | 10
33 | Oc1cc(C(F)(F)F)nnc1-c1cccc(F)c1 [Compound 736] | 10
34 | Oc1cc(C(F)(F)F)nnc1-c1cc(F)ccc1F [Compound 34] | 10
35 | Oc1cc(C(F)(F)F)nnc1-c1ccccc1F [Compound 26] | 10

same assay, conditions: dose 2000 g/ha, after 3 weeks

Row | Compound | weed control effect (activity level), Amaranthus retroflexus
36 | Oc1cc(C(F)(F)F)nnc1-c1ccc2ccccc2c1 [Compound 370] | 10

tested on: Rorippa indica; assay: Post-emergence test, weed control effect; type: in vivo; details: Dose 3000 g/ha, after 3 weeks
Outline: as §1

Row | Compound | weed control effect (activity level), Rorippa indica | weed control effect, Rorippa indica (activity level)
37 | Oc1cc(C(F)(F)F)nnc1-c1cc(F)cnc1F [Compound 986] | 10 | 
38 | O=S(Oc1cc(C(F)(F)F)nnc1-c1ccc(F)cc1)C(F)(F)F (stereo not drawn) [Compound 1-166] |  | 10
39 | N#Cc1cccc(-c2nnc(C(F)(F)F)cc2O)c1 [Compound 742] | 10 | 
40 | Oc1cc(C(F)(F)F)nnc1-c1cnccc1F [Compound 964] | 10 | 
41 | CC/C(C)=N\Oc1cc(C(F)(F)F)nnc1-c1ccc(C)cc1 [Compound 1-170] |  | 10
42 | COP(=O)(OC)Oc1cc(C(F)(F)F)nnc1-c1ccc(F)c(Cl)c1 [Compound 1-167] |  | 10
43 | O=S(=O)(Oc1cc(C(F)(F)F)nnc1-c1ccc(F)c(Cl)c1)c1ccc(Oc2ccc(F)cc2)cc1 [Compound 1-142] |  | 10
44 | Oc1cc(C(F)(F)F)nnc1-c1cc(Cl)cnc1Cl [Compound 992] | 10 | 
45 | Oc1cc(C(F)(F)F)nnc1-c1ccc2cccnc2c1 [Compound 723] | 10 | 
46 | Cc1cc(-c2nnc(C(F)(F)F)cc2O)n(C(C)C)n1 [Compound 829] | 10 | 
47 | Cc1ccc(-c2nnc(C(F)(F)F)cc2OC(=S)OCCC(C)C)c([N+](=O)[O-])c1 [Compound 1-159] |  | 10

same assay, conditions: dose 1000 g/ha, after 3 weeks

Row | Compound | weed control effect (activity level), Rorippa indica
48 | Oc1cc(C(F)(F)F)nnc1-c1c(Cl)cccc1Cl [Compound 41] | 10
49 | Oc1cc(C(F)(F)F)nnc1-c1ccc(F)cc1Cl [Compound 44] | 10
50 | CCOc1ccc(F)c(-c2nnc(C(F)(F)F)cc2O)c1F [Compound 81] | 10
51 | Oc1cc(C(F)(F)F)nnc1-c1cccc(F)c1 [Compound 736] | 10
52 | Oc1cc(C(F)(F)F)nnc1-c1cc(F)ccc1F [Compound 34] | 10
53 | Oc1cc(C(F)(F)F)nnc1-c1ccccc1F [Compound 26] | 10

same assay, conditions: dose 2000 g/ha, after 3 weeks

Row | Compound | weed control effect (activity level), Rorippa indica
54 | Oc1cc(C(F)(F)F)nnc1-c1ccc2ccccc2c1 [Compound 370] | 10

tested on: Veronica polita; assay: Post-emergence test, weed control effect; type: in vivo; details: Dose 3000 g/ha, after 3 weeks
Outline: as §1

Row | Compound | weed control effect (activity level), Veronica polita | weed control effect, Veronica polita (activity level)
55 | Oc1cc(C(F)(F)F)nnc1-c1cc(F)cnc1F [Compound 986] | 10 | 
56 | O=S(Oc1cc(C(F)(F)F)nnc1-c1ccc(F)cc1)C(F)(F)F (stereo not drawn) [Compound 1-166] |  | 10
57 | N#Cc1cccc(-c2nnc(C(F)(F)F)cc2O)c1 [Compound 742] | 10 | 
58 | Oc1cc(C(F)(F)F)nnc1-c1cnccc1F [Compound 964] | 10 | 
59 | CC/C(C)=N\Oc1cc(C(F)(F)F)nnc1-c1ccc(C)cc1 [Compound 1-170] |  | 10
60 | COP(=O)(OC)Oc1cc(C(F)(F)F)nnc1-c1ccc(F)c(Cl)c1 [Compound 1-167] |  | 10
61 | O=S(=O)(Oc1cc(C(F)(F)F)nnc1-c1ccc(F)c(Cl)c1)c1ccc(Oc2ccc(F)cc2)cc1 [Compound 1-142] |  | 10
62 | Oc1cc(C(F)(F)F)nnc1-c1cc(Cl)cnc1Cl [Compound 992] | 10 | 
63 | Oc1cc(C(F)(F)F)nnc1-c1ccc2cccnc2c1 [Compound 723] | 10 | 
64 | Cc1cc(-c2nnc(C(F)(F)F)cc2O)n(C(C)C)n1 [Compound 829] | 10 | 
65 | Cc1ccc(-c2nnc(C(F)(F)F)cc2OC(=S)OCCC(C)C)c([N+](=O)[O-])c1 [Compound 1-159] |  | 10

same assay, conditions: dose 1000 g/ha, after 3 weeks

Row | Compound | weed control effect (activity level), Veronica polita
66 | Oc1cc(C(F)(F)F)nnc1-c1c(Cl)cccc1Cl [Compound 41] | 10
67 | Oc1cc(C(F)(F)F)nnc1-c1ccc(F)cc1Cl [Compound 44] | 10
68 | CCOc1ccc(F)c(-c2nnc(C(F)(F)F)cc2O)c1F [Compound 81] | 10
69 | Oc1cc(C(F)(F)F)nnc1-c1cccc(F)c1 [Compound 736] | 10
70 | Oc1cc(C(F)(F)F)nnc1-c1cc(F)ccc1F [Compound 34] | 10
71 | Oc1cc(C(F)(F)F)nnc1-c1ccccc1F [Compound 26] | 10

same assay, conditions: dose 2000 g/ha, after 3 weeks

Row | Compound | weed control effect (activity level), Veronica polita
72 | Oc1cc(C(F)(F)F)nnc1-c1ccc2ccccc2c1 [Compound 370] | 10
